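48-hour exposure; five concentrations; linearly interpolated endpoints. GI50: concentration for 50% inhibition of growth.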 Active and inactive are the calls of the source. Rule as the data show it: active = GI50 up to about 1.1 µM and inactive = higher.
What was measured:
Test in all cases: DTP human tumour cell line panel, 48 h
A549 = system: A549
CAKI-1 = system: CAKI-1
HOP-62 = system: HOP-62
IGROV-1 = system: IGROV-1
KM12 = system: KM12
LOX IMVI = system: LOX IMVI
MCF7 = system: MCF7
Malme-3M = system: Malme-3M
NCI-H226 = system: NCI-H226
NCI-H460 = system: NCI-H460
RPMI-8226 = system: RPMI-8226
SK-OV-3 = system: SK-OV-3
SNB-19 = system: SNB-19
T47D = system: T47D
U-251 = system: U-251
HL-60 = system: HL-60
HOP-92 = system: HOP-92
NCI-H522 = system: NCI-H522
RXF 393 = system: RXF 393
MDA-N = system: MDA-N

With CC1CCN(C(C)C)P(=S)(Cc2ccccc2)O1 (centres undefined) the GI50 (A549) was > 100 µM (inactive), the GI50 (CAKI-1) was > 100 µM (inactive) and the GI50 (HOP-62) was > 100 µM (inactive). The GI50 (IGROV-1) was > 100 µM (inactive), the GI50 (KM12) was > 100 µM (inactive) and the GI50 (LOX IMVI) was > 100 µM (inactive). The GI50 (MCF7) was > 100 µM (inactive), the GI50 (Malme-3M) was > 100 µM (inactive) and the GI50 (NCI-H226) was > 100 µM (inactive). For the same molecule, the GI50 (NCI-H460) was > 100 µM (inactive), the GI50 (RPMI-8226) was 99.8 µM (inactive) and the GI50 (SK-OV-3) was > 100 µM (inactive). The GI50 (SNB-19) was > 100 µM (inactive), the GI50 (T47D) was 11.2 µM (inactive) and the GI50 (U-251) was > 100 µM (inactive).
With CN(Cc1ccccc1)c1nc(=[N+](C)C)ss1 the GI50 (A549) was 33.2 µM (inactive), the GI50 (CAKI-1) was > 100 µM (inactive) and the GI50 (HL-60) was 28.4 µM (inactive). For the same molecule, the GI50 (HOP-62) was > 100 µM (inactive), the GI50 (HOP-92) was > 100 µM (inactive) and the GI50 (IGROV-1) was > 100 µM (inactive). For the same molecule, the GI50 (KM12) was 9.42 µM (inactive), the GI50 (LOX IMVI) was 36.8 µM (inactive) and the GI50 (Malme-3M) was > 100 µM (inactive). The GI50 (NCI-H226) was 8.95 µM (inactive), the GI50 (NCI-H460) was 16.9 µM (inactive) and the GI50 (NCI-H522) was 41.1 µM (inactive). For the same molecule, the GI50 (RPMI-8226) was 28.3 µM (inactive), the GI50 (RXF 393) was > 100 µM (inactive) and the GI50 (SK-OV-3) was 96.8 µM (inactive). For the same molecule, the GI50 (SNB-19) was 86.5 µM (inactive) and the GI50 (U-251) was 40.8 µM (inactive).
In the case of O=C1c2cn[nH]c2N=C(Nc2ccccc2)C1/N=C/c1ccc([N+](=O)[O-])cc1 (centres undefined), the GI50 (A549) is reported as > 10 µM (inactive), the GI50 (HL-60) is reported as > 10 µM (inactive) and the GI50 (KM12) is reported as > 10 µM (inactive). For the same molecule, the GI50 (LOX IMVI) was > 10 µM (inactive), the GI50 (MCF7) was > 10 µM (inactive) and the GI50 (MDA-N) was > 10 µM (inactive). For the same molecule, the GI50 (Malme-3M) was > 10 µM (inactive), the GI50 (NCI-H226) was > 10 µM (inactive) and the GI50 (NCI-H460) was > 10 µM (inactive). For the same molecule, the GI50 (NCI-H522) was > 10 µM (inactive), the GI50 (SNB-19) was > 10 µM (inactive) and the GI50 (U-251) was > 10 µM (inactive).
With C/C(=C\COP(=O)(O)OP(=O)(O)O)CCCOCc1ccccc1 the GI50 (A549) was > 100 µM (inactive), the GI50 (CAKI-1) was > 100 µM (inactive) and the GI50 (HL-60) was 61.7 µM (inactive). The GI50 (HOP-62) was > 100 µM (inactive), the GI50 (IGROV-1) was > 100 µM (inactive) and the GI50 (KM12) was > 100 µM (inactive). The GI50 (LOX IMVI) was > 100 µM (inactive), the GI50 (MCF7) was > 100 µM (inactive) and the GI50 (Malme-3M) was > 100 µM (inactive). The GI50 (NCI-H226) was > 100 µM (inactive), the GI50 (NCI-H460) was > 100 µM (inactive) and the GI50 (NCI-H522) was > 100 µM (inactive). For the same molecule, the GI50 (RPMI-8226) was 0.207 µM (active), the GI50 (RXF 393) was > 100 µM (inactive) and the GI50 (SK-OV-3) was > 100 µM (inactive). For the same molecule, the GI50 (SNB-19) was > 100 µM (inactive), the GI50 (T47D) was > 100 µM (inactive) and the GI50 (U-251) was > 100 µM (inactive).
With CC(=O)OCC1OC(n2c(=O)n(-c3ccccc3)c(=O)c3ccccc32)C(OC(C)=O)C(OC(C)=O)C1OC(C)=O (centres undefined) the GI50 (A549) was > 100 µM (inactive), the GI50 (CAKI-1) was > 100 µM (inactive) and the GI50 (HL-60) was > 100 µM (inactive). For the same molecule, the GI50 (HOP-62) was > 100 µM (inactive), the GI50 (HOP-92) was > 100 µM (inactive) and the GI50 (IGROV-1) was > 100 µM (inactive). For the same molecule, the GI50 (KM12) was > 100 µM (inactive), the GI50 (LOX IMVI) was > 100 µM (inactive) and the GI50 (Malme-3M) was > 100 µM (inactive). For the same molecule, the GI50 (NCI-H226) was > 100 µM (inactive), the GI50 (NCI-H460) was > 100 µM (inactive) and the GI50 (NCI-H522) was > 100 µM (inactive). The GI50 (RPMI-8226) was 73.8 µM (inactive), the GI50 (RXF 393) was > 100 µM (inactive) and the GI50 (SK-OV-3) was > 100 µM (inactive). The GI50 (SNB-19) was > 100 µM (inactive) and the GI50 (U-251) was > 100 µM (inactive).
With COC(O)C(=O)c1c2c(cc3c1CC1(Cc4cc5c(cc4C1)CCC5)C3)CCC2 (centres undefined) the GI50 (A549) was 16.8 µM (inactive), the GI50 (CAKI-1) was 20.5 µM (inactive) and the GI50 (HL-60) was 23.2 µM (inactive). For the same molecule, the GI50 (HOP-62) was 15.9 µM (inactive), the GI50 (HOP-92) was 15.7 µM (inactive) and the GI50 (IGROV-1) was 13 µM (inactive). For the same molecule, the GI50 (LOX IMVI) was 7.13 µM (inactive), the GI50 (MCF7) was 16 µM (inactive) and the GI50 (Malme-3M) was 16.3 µM (inactive). The GI50 (NCI-H460) was 23.6 µM (inactive), the GI50 (NCI-H522) was 17.7 µM (inactive) and the GI50 (RPMI-8226) was 8.02 µM (inactive). The GI50 (RXF 393) was 14.8 µM (inactive), the GI50 (SK-OV-3) was 17.4 µM (inactive) and the GI50 (SNB-19) was 18.1 µM (inactive). The GI50 (T47D) was 21.9 µM (inactive) and the GI50 (U-251) was 11.6 µM (inactive).
For COc1cc(C=O)c(-c2cc(OC)c(OC)cc2C=O)cc1OC, the GI50 (A549) was > 100 µM (inactive), the GI50 (CAKI-1) was > 100 µM (inactive) and the GI50 (HL-60) was 36.8 µM (inactive). For the same molecule, the GI50 (HOP-62) was > 100 µM (inactive), the GI50 (HOP-92) was > 100 µM (inactive) and the GI50 (IGROV-1) was > 100 µM (inactive). For the same molecule, the GI50 (KM12) was > 100 µM (inactive), the GI50 (LOX IMVI) was 13.7 µM (inactive) and the GI50 (Malme-3M) was > 100 µM (inactive). For the same molecule, the GI50 (NCI-H226) was > 100 µM (inactive), the GI50 (NCI-H460) was 90.4 µM (inactive) and the GI50 (NCI-H522) was > 100 µM (inactive). For the same molecule, the GI50 (RPMI-8226) was 36.9 µM (inactive), the GI50 (RXF 393) was 24.5 µM (inactive) and the GI50 (SK-OV-3) was > 100 µM (inactive). For the same molecule, the GI50 (SNB-19) was > 100 µM (inactive) and the GI50 (U-251) was > 100 µM (inactive).
With O=C1CCCC/C1=C/C=C/c1ccccc1 the GI50 (A549) was 52.5 µM (inactive), the GI50 (CAKI-1) was > 100 µM (inactive) and the GI50 (HL-60) was 25.9 µM (inactive). For the same molecule, the GI50 (HOP-92) was 58.5 µM (inactive), the GI50 (IGROV-1) was > 100 µM (inactive) and the GI50 (KM12) was 42.2 µM (inactive). The GI50 (LOX IMVI) was 48.9 µM (inactive), the GI50 (Malme-3M) was 87.9 µM (inactive) and the GI50 (NCI-H226) was > 100 µM (inactive). For the same molecule, the GI50 (NCI-H460) was > 100 µM (inactive), the GI50 (NCI-H522) was 30.7 µM (inactive) and the GI50 (RPMI-8226) was 32.5 µM (inactive). For the same molecule, the GI50 (RXF 393) was 47.4 µM (inactive), the GI50 (SK-OV-3) was 55.7 µM (inactive) and the GI50 (SNB-19) was > 100 µM (inactive). The GI50 (U-251) was 83 µM (inactive).
